{"source": "patent US20260207722A1", "about": "“COMBINATION FOR TREATMENT OF AUTOIMMUNE DISEASES” (Bonsai Biotherapeutics AB, priority 2023, published 2026)", "system": "experimental autoimmune myasthenia gravis (EAMG)", "assay": "EAMG clinical score, rats treated with TOL2 and/or diclofenac (Example 2)", "type": "in vivo, rat", "conditions": "treatment 40 days after EAMG induction; diclofenac 10 mg/kg ip; TOL2 500 μg iv alone, 250 μg iv in the combination; vs PBS-treated controls; FIG. 3A", "data": [{"smiles": "O=C(O)Cc1ccccc1Nc1c(Cl)cccc1Cl", "note": "[diclofenac]", "values": [{"measurement": "EAMG score", "value": "did not show any improvement"}]}]}
